Assay results: PubChem BioAssay AID1963443 (Molecular Pharmacology Branch, DTP, NCI, 2024)
Values joined by “and” are separate entries in the source; they are usually repeats but may differ in a detail not shown here. Equal entries are not always repeated.

Test system: MDA-MB-231 complex spheroids, growth inhibition
Test: Anticancer human tumor MDA-MB-231 cell line growth inhibition [Asc];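 note: spheroids exposed to compounds for 7 days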
Conditions: for viability, T/C: stronger effect = lower value
Experimental: Multicellular complex tumor spheroid response to apoptosis pathway targeting inhibitors Alrizomadlin, Pelcitoclax, and Dasminapant in combination with a variety of drugs and investigational agents in selected tumor cell lines
The MDM2 inhibitor alrizomadlin, the Bcl-2/Bcl-xL inhibitor pelcitoclax, and the IAPs inhibitor dasminapant were evaluated both individually and in combination with standard of care and investigational anticancer small molecules within a complex spheroid model of solid tumors. . Complex spheroids include a stromal component modeled by human endothelial cells (HUVEC) and fibroblasts modeled by human mesenchymal stem cells (MSCs). The concentration ranges selected for each drug and investigational agent were based upon clinically achievable concentrations if the clinical Cmax of the agent was known.
Compounds. The drugs and investigational agents: alrizomadlin (APG-115; NSC831270), pelcitoclax (APG-1252; NSC835773), dasminapant (APG-1387;NSC834197), TAK-243 (NSC785004), copanlisib (NSC809693), olaparib (NSC753686), talazoparib (NSC767125), cobimetinib (NSC 768068), eltanexor (KPT-8602, NSC 794443), abemaciclib (NSC 768073), sotorasib (NSC818433), adagrasib (NSC 831453), MRTX-1133 (NSC 836407), Iadademestat (ORY1001, NSC 806812), and RMC-4630 (NSC839698), were obtained from the NCI Developmental Therapeutics Program Chemical Repository. The FDA-approved anticancer drug set is available from the Developmental Therapeutics Program at https://dtp.cancer.gov/organization/dscb/obtaining/available plates.htm. […] The stock solutions were prepared in dimethyl sulfoxide (DMSO, Sigma-Aldrich, St. Louis, MO, cat. D2650) at 800-fold the tested concentration and stored at -70 degrees C prior to their use. All drugs and investigational agents were tested over a range starting from a high concentration at or near the clinical Cmax and decreasing in half-log increments. If the clinical Cmax for an agent had not been determined, the highest concentration tested was 10 microM.
The patient-derived cancer (PDC) cell lines include five colon adenocarcinomas: 186277-243-T-J2-PDC, 616215-338-R-J1-PDC, 439559-082-T-J2-PDC, 463943-066-T-J2-PDC, and 519858-162-T-J1-PDC; three pancreatic carcinomas: 323965-272-R-J2-PDC, 521955-158-R6-J3-PDC, and 521955-158-R2-J5-PDC; two uterine sarcomas: 327498-152-R-J2-PDC and 993429-296-R-J1-PDC; two rhabdomyosarcomas: 755483-174-R-J1-PDC and 772245-204-R-J1-PDC; two soft tissue sarcomas: 126254-015-R-J1-PDC and 494315-158-R-J1-PDC; two malignant fibrous histiocytomas: 317291-083-R-J1-PDC and 596521-263-R-J1-PDC; two breast carcinomas: 171881-019-R-J1-PDC and 885512-296-R-J2-PDC; and one ovarian carcinoma: 6556581-035-R-J-PDC were obtained from the NCI PDMR, (https://pdmr.cancer.gov). The established cell lines HSSY-2 synovial sarcoma (RRID:CVCL 8719), SYO-1 synovial sarcoma (RRID:CVCL_7146), MPNST malignant peripheral neural sheath tumor were obtained from the Sloan Kettering Institute. The following established cell lines were purchased from the American Type Culture Collection (ATCC, Manassas, VA), Sor the received from the NCI repository:, PANC-1 pancreatic carcinoma (CRL-1469, RRID:CVCL_0480), OVCAR-5 ovarian carcinoma (RRID:CVCL_1628), OVCAR-8 ovarian carcinoma (RRID:CVCL_1629), , MCF-7 breast carcinoma (CRL-12584, RRID:CVCL_0031), MDA-MB-231 breast carcinoma (CRL-12532, RRID:CVCL_0062), NCI-H1876 small cell lung carcinoma (CRL-5902, RRID:CVCL_1503), NCI-H510A small cell lung carcinoma (HTB-184, RRID:CVCL_1565), NCI-H1417 (CRL-5869, RRID:CVCL_1469), and NCI-H196 small cell lung carcinoma (CRL-5823, RRID:CVCL_1509). Dr. Peter Houghton (Greehey Children's Cancer Research Institute, University of Texas Health Science Center, San Antonio, TX) provided Rh-18 rhabdomyosarcoma (RRID:CVCL_1659). Pooled donor human umbilical vein endothelial cells (HUVEC, Lonza, cat. CC-2519) and human mesenchymal stem cells (hMSC, Lonza, cat. PT-2501) were purchased from Lonza (Walkersville, MD).
Cell Culture. […]

[1] = curve of first compound, second compound 0.1 µM
[2] = curve of first compound, second compound 0.316 µM
[3] = curve of first compound, second compound 1 µM
[4] = curve of first compound, second compound 3.16 µM
[5] = curve of first compound, second compound 10 µM
[6] = second compound 0.1 µM, first compound 0.00316 µM
[7] = second compound 0.1 µM, first compound 0.01 µM
[8] = second compound 0.1 µM, first compound 0.0316 µM
[9] = second compound 0.1 µM, first compound 0.1 µM
[10] = second compound 0.1 µM, first compound 0.316 µM
[11] = second compound 0.1 µM, first compound 1 µM
[12] = second compound 0.316 µM, first compound 0.00316 µM
[13] = second compound 0.316 µM, first compound 0.01 µM
[14] = second compound 0.316 µM, first compound 0.0316 µM
[15] = second compound 0.316 µM, first compound 0.1 µM
[16] = second compound 0.316 µM, first compound 0.316 µM
[17] = second compound 0.316 µM, first compound 1 µM
[18] = second compound 1 µM, first compound 0.00316 µM
[19] = second compound 1 µM, first compound 0.01 µM
[20] = second compound 1 µM, first compound 0.0316 µM
[21] = second compound 1 µM, first compound 0.1 µM
[22] = second compound 1 µM, first compound 0.316 µM
[23] = second compound 1 µM, first compound 1 µM
[24] = second compound 3.16 µM, first compound 0.00316 µM
[25] = second compound 3.16 µM, first compound 0.01 µM
[26] = second compound 3.16 µM, first compound 0.0316 µM
[27] = second compound 3.16 µM, first compound 0.1 µM
[28] = second compound 3.16 µM, first compound 0.316 µM
[29] = second compound 3.16 µM, first compound 1 µM
[30] = second compound 10 µM, first compound 0.00316 µM
[31] = second compound 10 µM, first compound 0.01 µM
[32] = second compound 10 µM, first compound 0.0316 µM
[33] = second compound 10 µM, first compound 0.1 µM
[34] = second compound 10 µM, first compound 0.316 µM
[35] = second compound 10 µM, first compound 1 µM

Row | IC50 [1] | IC50 [2] | IC50 [3] | IC50 [4] | IC50 [5] | SMILES | viability, T/C [6] | viability, T/C [7] | viability, T/C [8] | viability, T/C [9] | viability, T/C [10] | viability, T/C [11] | viability, T/C [12] | viability, T/C [13] | viability, T/C [14] | viability, T/C [15] | viability, T/C [16] | viability, T/C [17] | viability, T/C [18] | viability, T/C [19] | viability, T/C [20] | further results
1 | – | – | – | – | – | CNC(C)C(=O)NC1CN(S(=O)(=O)c2cccc(S(=O)(=O)N3CCC4CCC(C(=O)NC(c5ccccc5)c5ccccc5)N4C(=O)C(NC(=O)C(C)NC)C3)c2)CCC2CCC(C(=O)NC(c3ccccc3)c3ccccc3)N2C1=O (configuration not stated) | – | – | – | – | – | – | – | – | – | – | – | – | – | – | – | viability, T/C (compound 0.00316 µM): 5.11% and 4.58% and 5.25%; viability, T/C (compound 0.01 µM): 2.25% [middle of 14 runs]; viability, T/C (compound 0.0316 µM): 1.55% [middle of 14 runs]; viability, T/C (compound 0.1 µM): 1.38% [middle of 12 runs]; IC50 (compound alone, run of 10/24/2022): < 10 nM; IC50 (compound alone, run of 11/15/2022): < 3.16 nM; IC50 (curve of compound): < 3.16 nM
2 | 76.3 nM | 103 nM | 71.3 nM | 117 nM | 116 nM | O=C(c1ccc(F)c(F)c1Nc1ccc(I)cc1F)N1CC(O)([C@@H]2CCCCN2)C1 + Cc1c(S(C)(=O)=O)c(-c2cc(F)cc(N3CCN(c4ccc(NS(=O)(=O)c5ccc(NC(CCN6CCC(C(=O)OCCCP(=O)(O)O)CC6)CSc6ccccc6)c(S(=O)(=O)C(F)(F)F)c5)cc4)CC3)c2)c(-c2ccc(Cl)cc2)n1C(C)C | 87.8% | 68.8% | 60.6% | 51.9% | 24.9% | 1.38% | 86.3% | 61.9% | 64.7% | 54.8% | 14.6% | 0.96% | 96.5% | 59.5% | 66.7% | viability, T/C [21]: 60.3%; viability, T/C [22]: 10.8%; viability, T/C [23]: 1.16%; viability, T/C [24]: 81.9%; viability, T/C [25]: 56.5%; viability, T/C [26]: 60.4%; viability, T/C [27]: 57.2%; viability, T/C [28]: 5.78%; viability, T/C [29]: 0.65%; viability, T/C [30]: 93.9%; viability, T/C [31]: 93.1%; viability, T/C [32]: 89%; viability, T/C [33]: 57.1%; viability, T/C [34]: 0.97%; viability, T/C [35]: 0.83%
3 | 648 nM | > 1000 nM | 306 nM | 258 nM | 308 nM | CCN1CCN(Cc2ccc(Nc3ncc(F)c(-c4cc(F)c5nc(C)n(C(C)C)c5c4)n3)nc2)CC1 + Cc1c(S(C)(=O)=O)c(-c2cc(F)cc(N3CCN(c4ccc(NS(=O)(=O)c5ccc(NC(CCN6CCC(C(=O)OCCCP(=O)(O)O)CC6)CSc6ccccc6)c(S(=O)(=O)C(F)(F)F)c5)cc4)CC3)c2)c(-c2ccc(Cl)cc2)n1C(C)C | 97.4% | 97.9% | 84% | 65.6% | 47.9% | 51.5% | 103% | 95.4% | 84.9% | 64.8% | 49.7% | 53.1% | 98.1% | 93.2% | 87.7% | viability, T/C [21]: 67.6%; viability, T/C [22]: 49.5%; viability, T/C [23]: 42.1%; viability, T/C [24]: 95.9%; viability, T/C [25]: 91.9%; viability, T/C [26]: 83.8%; viability, T/C [27]: 63.8%; viability, T/C [28]: 47.7%; viability, T/C [29]: 36.5%; viability, T/C [30]: 104%; viability, T/C [31]: 97.7%; viability, T/C [32]: 93.6%; viability, T/C [33]: 76.9%; viability, T/C [34]: 48.7%; viability, T/C [35]: 32.2%
